According to article PMC2724550, “Citrus auraptene suppresses cyclin D1 and significantly delays N-methyl nitrosourea induced mammary carcinogenesis in female Sprague-Dawley rats” (BMC Cancer, 2009):

Experiments:
MDA-MB-231 cells = assay: MDA-MB-231 cell proliferation assay (MTT); format: cell-based, human
Experimental: The human breast carcinoma cell line MDA-MB-231 was obtained from ATCC (Manassas, VA) and grown in a sterile humidified environment at 37°C and 5% CO2: 95% air with complete DMEM media. The proliferation study was done by MTT assay which uses a tetrazolium compound [3-(4, 5-dimethylthiazol-2-yl)-2,5-diphenyltetrazolium bromide; MTT], which is converted into a formazan product by living cells. The MDA-MB-231 cells were plated in a 96 well plate at 12,500 cells/well at a confluency of 40%. The serum containing media was replaced with serum free media 5 hrs before treatment. The cells were then treated with auraptene at 1 – 50 μM auraptene in DMSO (0.1%, v/v). The control cells received vehicle only (DMSO, 0.1% v/v). After 24 hrs of treatment the cells were treated with MTT for 2 h and the absorbance was measured at 540 nm.
Figure 2 Effects of auraptene on human breast carcinoma cells. (A) Effects of auraptene on MDA-MB-231 cell proliferation. Cells were serum starved for 5 h and then treated with 1–50 μM auraptene in […]. Cell proliferation was assessed using the MTT reagent. Figures represent % vehicle control (means ± S.E.) # Replicates = 2 plates at 6 wells each for the treatment groups and 12 wells for the control group (* statistically different from control group, p < 0.05, One-way ANOVA, Tukey test). (B) Effects of auraptene on MCF-7 cell proliferation. Cells were serum starved for 24 h. At 22 h after serum starvation the cells were treated with 1–50 μM auraptene in […]. At 24 h serum starvation, the cells were treated with IGF-1 (10 ng/mL). Cell proliferation was assessed using the MTS reagent. Figures represent % vehicle control (mean± S.E.) # Replicates = 2 plates at 6 wells each for the treatment groups. (* statistically different from IGF-1 group, p < 0.05, One-way ANOVA, Tukey test). (C) Effects of auraptene on IGF-1 induced cyclin D1 expression. MCF-7 cells were serum starved for 24 h. At 22 h after serum starvation the cells were treated with10 μM auraptene in […]. At 24 h serum starvation the cells were treated with IGF-1 (10 ng/mL). The cells were harvested at the 15, 30 minutes and at 1 h, 2 h, 4 h, 8 h and 24 h. The cell lysates were probed for cyclin D1. […] The lower band (36 KD) is cyclin D1 and the upper band is β-actin (43 KD).

MCF-7 cells = assay: MCF-7 cell proliferation assay with IGF-1 (MTS); format: cell-based, human; conditions: IGF-1 10 ng/mL, 24 hrs
Experimental: The human breast carcinoma cell line MCF-7 was obtained from ATCC (Manassas, VA) and grown in a sterile humidified environment at 37°C and 5% CO2: 95% air with complete DMEM media. The MCF-7 cells were plated in a 96 well plate at 30,000 cells/well at a confluency of 40%. The cells were serum starved for 24 h. At 22 h of serum starvation, the cells were treated with auraptene at 1 – 50 μM auraptene in DMSO (0.1%, v/v). The control cells received vehicle only (DMSO, 0.1% v/v). At 24 h of serum starvation, the cells were treated with IGF-1(10 ng/mL). After 24 hrs of IGF-1 treatment, the cells were treated with MTS [3-(4,5-dimethylthiazol-2-yl)-5-(3-carboxy methoxy phenyl)-2-(4-sulfophenyl)-2H-tetrazolium], for 2 h and the absorbance was measured at 490 nm.
Figure 2 Effects of auraptene on human breast carcinoma cells. (A) Effects of auraptene on MDA-MB-231 cell proliferation. Cells were serum starved for 5 h and then treated with 1–50 μM auraptene in 0.01% DMSO. Cell proliferation was assessed using the MTT reagent. Figures represent % vehicle control (means ± S.E.) # Replicates = 2 plates at 6 wells each for the treatment groups and 12 wells for the control group (* statistically different from control group, p < 0.05, One-way ANOVA, Tukey test). (B) Effects of auraptene on MCF-7 cell proliferation. Cells were serum starved for 24 h. […] Cell proliferation was assessed using the MTS reagent. […]

cyclin D1 [1] = assay: Western blot of IGF-1 induced cyclin D1 expression in MCF-7 cells; format: cell-based, human; conditions: 10 μM auraptene, 2 h pretreatment, 8 h after IGF-1, MCF-7 cells
Experimental: To study the effect of auraptene on the expression on cyclin D1, MCF-7 cells were plated in eight 12-well plates at 1.5 × 10^4 cells/well. The cells were incubated at 37°C till the next day in media with serum. The cells were serum starved for synchronization in serum free media for the next 24 h. At 22 h of serum starvation, the cells except in DMSO only and IGF-1 only groups, were treated with 10 μM auraptene in DMSO. At 24 h of serum starvation, the cells except in DMSO group were treated with 10 ng/mL of IGF-1. The cells were harvested at 5,15 and 30 minutes and at 1 h, 2 h, 4 h, 8 h and 24 h after IGF-1 treatment by directly adding boiling Laemmeli buffer. The cyclin D1 expression was then analyzed by western blot. In short, equal volumes (15 μL) of the sample in Laemmeli buffer was loaded into each well and resolved. The separated proteins were then electroblotted on a 0.45 μm pore size PVDF membrane (Immobilon-P, Millipore, Billerica, MA). After the protein transfer the membrane was placed in Millipore SNAP id Protein Detection System. […] The band intensity was evaluated using the Image-J software. […]
Figure 2 Effects of auraptene on human breast carcinoma cells. […] Cell proliferation was assessed using the MTT reagent. […] Cell proliferation was assessed using the MTS reagent. […]

cyclin D1 [2] = assay: Western blot of cyclin D1 expression in rat mammary tumors; format: in vivo, female Sprague-Dawley rats; conditions: 500 ppm in diet, compared to MNU only group, n = 10 per group
Experimental: The mammary tumors from the female Sprague-Dawley rats were analyzed for cyclin D1 expression and eukaryotic Initiation Factor 4E (eIF4E) as previously described. Briefly, samples were first homogenized in RIPA buffer [50 mM Tris-HCL (pH 7.4), 1% Triton-X, 150 mM NaCl, 1 mM EDTA, 1 mM sodium orthovanadate, 1 mM PMSF, 1 μg of aprotinin, leupeptin and pepstatin and 1 mM sodium fluoride]. The proteins were measured by Bradford method (using BSA as a standard), followed by the addition of 2 × sample buffer [0.125 M Tris, 10% (w/v) SDS, 40% (v/v) glycerol, 0.04% (w/v) bromophenol blue, and 80 mM dithiothreitol]. Samples were heated to 95°C for 5 min, and 10 μg of protein/well was loaded and resolved. The proteins were then transferred and detected for cyclin D1 expression as mentioned above. Lysate from MCF-7 cells treated with IGF-1 was used as positive control for cyclin D1.
Figure 5 Effects of dietary auraptene on cyclin D1 expression in rat mammary tumors. From the same tumor study, rat mammary tumors were homogenized and the lysates were used for western blot to analyze the cyclin D1 expression. […] (+ statistically different from MNU group, * statistically different from Auraptene 200 group, p < 0.05, One-way ANOVA, Tukey test).

For `CC(C)=CCC/C(C)=C/COc1ccc2ccc(=O)oc2c1` [auraptene], the “reduction in MDA-MB-231 cell proliferation” value (MDA-MB-231 cells; 10 μM auraptene, 24 hrs, MTT) was “about 23%”, the “suppression of MDA-MB-231 cell proliferation” value (MDA-MB-231 cells; 25 μM auraptene, 24 hrs, MTT) was 85% and the “suppression of MDA-MB-231 cell proliferation” value (MDA-MB-231 cells; 50 μM auraptene compared with 25 μM) was “did not achieve any higher suppression of cell proliferation”. The IC50 (MDA-MB-231 cells; Homo sapiens, MDA-MB-231, 24 hrs treatment, serum free media, MTT, read-out: concentration suppressing MDA-MB-231 cell proliferation by 50%) was 12 µM, the “suppression of MCF-7 cell proliferation” value (MCF-7 cells; 20 μM auraptene) was 26% and the “suppression of MCF-7 cell proliferation” value (MCF-7 cells; 50 μM auraptene) was 49%. For the same molecule, the “IGF-1 induced cyclin D1 expression” value (cyclin D1 [1]) was “nearly a total loss of IGF-1 induced cyclin D1 expression” and the “reduction of cyclin D1 expression in rat mammary tumors” value (cyclin D1 [2]) was 49%.
